{"source": "patent US20080058642A1", "about": "“METHOD FOR DETECTING CORONARY ENDOTHELIAL DYSFUNCTION AND EARLY ATHEROSCLEROSIS” (BOARD OF REGENTS OF THE UNIVERSITY OF TEXAS SYSTEM, priority 2006, published 2008)", "origin": "cited, not measured here", "target": "T1, ETA-receptor (Homo sapiens, UniProt P25101)", "T1 construct": "host or cells: in vivo, heart failure trial", "T1 sequence (P25101 21-427)": "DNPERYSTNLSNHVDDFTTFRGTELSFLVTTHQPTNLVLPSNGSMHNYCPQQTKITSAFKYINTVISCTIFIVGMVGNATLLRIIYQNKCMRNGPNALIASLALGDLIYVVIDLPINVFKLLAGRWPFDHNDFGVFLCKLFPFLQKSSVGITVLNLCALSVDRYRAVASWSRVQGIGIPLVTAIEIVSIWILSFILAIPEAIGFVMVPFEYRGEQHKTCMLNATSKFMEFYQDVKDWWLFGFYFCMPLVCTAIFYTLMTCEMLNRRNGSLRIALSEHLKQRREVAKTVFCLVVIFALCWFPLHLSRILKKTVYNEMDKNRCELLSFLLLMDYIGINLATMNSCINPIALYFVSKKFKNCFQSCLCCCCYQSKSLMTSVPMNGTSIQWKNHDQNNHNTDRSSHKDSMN", "details": "recent randomized trial; cited from earlier work", "data": [{"smiles": "COc1cc(OC)nc(O[C@H](C(=O)O)C(OC)(c2ccccc2)c2ccccc2)n1", "note": "[Darusentan™]", "values": [{"measurement": "benefit in heart failure", "result": "no benefit"}]}]}
